# Experimental data from patent US10792301B2, “Therapeutic polysaccharide midi-GAGR and related materials and methods” (priority 2015, dated 2020).
# Tests used:
# [1] = system: pCREB in mouse cortical neurons (E17, DIV6); assay: Nuclear pCREB in midi-GAGR-treated neurons after signaling inhibitors; assay type: cell-based; settings: inhibitor 6 h (SU5402 4 μM, staurosporine 3 nM, U0126 10 μM, LY294002 20 μM, KN-62 10 μM, PF-573228 1 μM), then 1 μM midi-GAGR 48 h
# Protocol: (§1) To analyze the effect of polysaccharides on neurite outgrowth, primary mouse cortical neurons were treated with vehicle (H2O) or 1 μM of dextran, alginate, or midi-GAGR, 0.01 μM of HA-GAGR, or 0.1 μM of LA-GAGR for 2 days prior to immunocytochemistry using anti-α-tubulin antibody and secondary Alexa488nm antibody. An etched grid coverslip containing 200 numbered boxes was used to select neurons objectively for image acquisition and analysis. A total of 24 boxes were randomly selected per treatment group. All the neurons having total neurite length longer than 4 times of the diameter of neuron cell body were chosen for image analysis. The total length of the neurites of each neuron was measured using Metamorph and used to calculate average total neurite length. To examine the effect of polysaccharides on the phosphorylation (activation) of nuclear CREB, neurons were stained with anti-pCREB antibody (Abcam & Santa Cruz biotechnologies, 2nd antibody with Alexa568nm), anti-α-tubulin antibody (Sigma, 2nd antibody with Alexa488nm), and DAPI (Sigma) after two-day incubation with vehicle (H2O) or 1 μM of dextran, alginate, or midi-GAGR, 0.01 μM of HA-GAGR, or 0.1 μM of LA-GAGR. […] The images of neurons on coverslips were taken by confocal microscopy at the same gain (850), offset (˜0.01) and exposure time (2 sec). The intensity of the staining of nuclear pCREB was measured using Metamorph and used to calculate average intensity. In addition, the phosphorylation of CREB in the cytosols of mouse cortical neurons treated with polysaccharides were detected by immunoblotting. Primary mouse neurons were dissected from 16 mouse embryos (E17) and plated in the wells of 6-well plates (1×10^6 cells/well), differentiated for 6 days, and treated with polysaccharides for 48 h. Then, neurons were harvested and lysed in 1% Igepal CA-630 (Sigma)-containing PMEE buffer plus protease and phosphatase inhibitor cocktails (Sigma) for protein extraction. Extracted proteins were separated in 4-12% NuPAGE Bis-Tris protein gels (Life Technologies) and transferred to nitrocellulose membrane (GE Healthcare Life Science, Pittsburgh, Pa.) using a semidry blotter (Hoefer, Inc. San Francisco, Calif.). The protein bands on blots recognized by anti-pCREB (Santa Cruz Biotechnologies) and anti-CREB antibodies were detected on Amersham Hyperfilm™ ECL films (GE Healthcare Life Science) using SuperSignal® West Pico Chemiluminescent Substrate (Thermo Scientific).
# Pharmacological agents were used to inhibit signaling molecules downstream of FGFR1 that mediate CREB phosphorylation. […] PF-573228 (PF, 1 μM) that inhibits FAK which sits at the bottleneck of the signaling pathway downstream of NCAM180 was also included to examine whether NCAM180 is involved in midi-GAGR-mediated CREB phosphorylation or not. […]
# [2] = system: Rat cortical neurons (E17, DIV6); assay: LIVE/DEAD assay with FGFR1 inhibitor SU5402 and 4HNE; assay type: cell-based
# Text: The protective effect of polysaccharides on primary cortical neurons from 4HNE, H2O2, and Aβ42 peptide (Sigma) was examined using LIVE/DEAD® Viability/Cytotoxicity Assay Kit (Life Technologies). Female pregnant mice (BALB/C, E17, Charles River Laboratories International, Inc.) or female pregnant SD rats (E17, bred in house) were anesthetized and dissected to obtain 8-9 embryos per animal. Cortical neurons were isolated from embryonic brains and differentiated on poly-L-lysine-coated coverslips in B27/neurobasal medium. For drug treatment before free radical treatment, mouse cortical neurons (5 days in vitro [DIV5.]) were treated with vehicle (H2O), 1 μM of 5 kD dextran (Sigma), alginate (Sigma), midi-GAGR, 0.01 μM of high acyl gellan gum (HA-GAGR, CPKelco Co.), or 0.1 μM of LA-GAGR for 24 h and then treated with 10 μM 4HNE or 50 μM H2O2 for 24 h, or 2 μM A[…]42 peptide for 48 h prior to viability/cytotoxicity assay. For drug co-treatment with free radicals, rat cortical neurons (DIV5) were treated with 1 μM of dextran, alginate, or midi-GAGR, 0.01 μM of HA-GAGR, or 0.1 μM of LA-GAGR along with either 10 μM 4HNE (24 h) or 2 μM Aβ42 peptide (48 h). […]
# [3] = ABTS Antioxidant Assay Kit; assay type: biochemical; settings: 10 μM polysaccharide
# Protocol: The antioxidant capacity of midi-GAGR was measured using ABTS Antioxidant Assay Kit (Zenbio Co.). […] This was slightly stronger than antioxidant capacity of LA-GAGR (10 μM LA-GAGR=15.4 μM trolox) (Table 2).
# [4] = system: Mouse cortical neurons (E17, DIV5); assay: LIVE/DEAD assay, pre-treated mouse cortical neurons with 4HNE, H2O2 or Aβ42; assay type: cell-based; settings: pre-treatment 24 h (1 μM midi-GAGR, dextran, alginate; 0.1 μM LA-GAGR; 0.01 μM HA-GAGR); for neuron death after Aβ42 peptide: 2 μM Aβ42 48 h, vehicle about 30%; for neuron death after 4HNE: 10 μM 4HNE 24 h, vehicle ~26%; for neuron death after H2O2: 50 μM H2O2 24 h, vehicle ~25%
# Text: The protective effect of polysaccharides on primary cortical neurons from 4HNE, H2O2, and Aβ42 peptide (Sigma) was examined using LIVE/DEAD® Viability/Cytotoxicity Assay Kit (Life Technologies). Female pregnant mice (BALB/C, E17, Charles River Laboratories International, Inc.) or female pregnant SD rats (E17, bred in house) were anesthetized and dissected to obtain 8-9 embryos per animal. Cortical neurons were isolated from embryonic brains and differentiated on poly-L-lysine-coated coverslips in B27/neurobasal medium. For drug treatment before free radical treatment, mouse cortical neurons (5 days in vitro [DIV5.]) were treated with vehicle (H2O), 1 μM of 5 kD dextran (Sigma), alginate (Sigma), midi-GAGR, 0.01 μM of high acyl gellan gum (HA-GAGR, CPKelco Co.), or 0.1 μM of LA-GAGR for 24 h and then treated with 10 μM 4HNE or 50 μM H2O2 for 24 h, or 2 μM A[…]42 peptide for 48 h prior to viability/cytotoxicity assay. For drug co-treatment with free radicals, rat cortical neurons (DIV5) were treated with 1 μM of dextran, alginate, or midi-GAGR, 0.01 μM of HA-GAGR, or 0.1 μM of LA-GAGR along with either 10 μM 4HNE (24 h) or 2 μM Aβ42 peptide (48 h). To examine the extent to which midi-GAGR-mediated neuroprotection depends on FGFR1, rat cortical neurons (E17, DIV5) were pre-treated with 4 μM SU5402 (Sigma) for 6 h and treated with 10 μM 4HNE and either vehicle or 1 μM midi-GAGR for 24 h prior to cell viability/cytotoxicity assay. As controls, neurons were treated with SU5402, midi-GAGR, 4HNE, 4HNE plus midi-GAGR, or SU5402 plus midi-GAGR.
# For cell viability/cytotoxicity measurement, neurons on glass coverslips were incubated in 1×PBS containing 2 μM calcein AM (live cells: green) and 4 μM ethidium homodimer-1 (dead cells: red) for 10 min at 37° C. Immediately thereafter, neurons were imaged by 10×objective using a fluorescence Olympus IX71 microscope (Olympus America Inc., Center Valley, Pa.) and, for the acquisition of high-quality images, using TCS SP5 multi-photon laser scanning confocal microscope.
# Midi-GAGR attenuated neurite atrophy caused by free reactive radicals. It is now shown herein that midi-GAGR protect neurons from the death caused by free radical insults. The extent to which midi-GAGR protects the primary culture of rodent cortical neurons from 4HNE and H2O2 was determined. In addition to the radicals, amyloid β peptide (Aβ42) was also tested. Aβ42 peptide is a major causative factor that causes oxidative stress and neuron death. Mouse cortical neurons (E17, DIV5) were treated with 10 μM 4HNE (24 h), 50 μM H2O2 (24 h), or 2 μM Aβ42 peptide (48 h) after the treatment of the neurons with vehicle (H2O), midi-GAGR (1 μM), dextran (1 μM), alginate (1 μM), LA-GAGR (0.1 μM), or HA-GAGR (0.01 μM) for 24 h. The concentrations of 4HNE, H2O2, and Aβ42 peptide were chosen according to their patho-physiological concentrations. The concentrations of LA-GAGR and HA-GAGR were chosen because, within the same volume, the total numbers of sugar units in the polysaccharides at the concentrations are close to that of 1 μM midi-GAGR. The viability of neurons was assessed using LIVE/DEAD® Viability/Cytotoxicity Assay Kit in which membrane-permeant calcein AM is cleaved by esterase in live cells, thus yielding green fluorescence, and membrane-impermeant ethidium homodimer-1 stains the nucleic acids of plasma membrane-compromised cells with red fluorescence. The numbers of green (live) and red (dead) neurons in each condition were counted using Metamorph. Although the intensities of green fluorescent signals in neurons treated with either free radicals or Aβ42 peptide were weak, the neurons were included in the counting. About 8-9% of vehicle-treated neurons died during the process of live/dead cell assay (FIGS. 23A-23F, FIGS. 24A-24C).
# [5] = system: primary mouse cortical neurons (E17, DIV4); assay: Neurite outgrowth in primary mouse cortical neurons; assay type: cell-based; settings: 2 days; 1 μM midi-GAGR, dextran, alginate; 0.1 μM LA-GAGR; 0.01 μM HA-GAGR
# Protocol: as §1, with “Then, neurons were harvested and lysed in 1% Igepal CA-630 (Sigma)-containing PMEE buffer plus protease and phosphatase inhibitor cocktails (Sigma) for protein extraction. Extracted proteins were separated in 4-12% NuPAGE Bis-Tris protein gels (Life Technologies) and transferred to nitrocellulose membrane (GE Healthcare Life Science, Pittsburgh, Pa.) using a semidry blotter (Hoefer, Inc. San Francisco, Calif.).” left out
# [6] = system: pCREB in mouse cortical neurons; assay: Nuclear pCREB immunostaining in mouse cortical neurons (Example 4); assay type: cell-based; settings: 48 h; 1 μM midi-GAGR, dextran, alginate; 0.1 μM LA-GAGR; 0.01 μM HA-GAGR
# Protocol: (§2) To analyze the effect of polysaccharides on neurite outgrowth, primary mouse cortical neurons were treated with vehicle (H2O) or 1 μM of dextran, alginate, or midi-GAGR, 0.01 μM of HA-GAGR, or 0.1 μM of LA-GAGR for 2 days prior to immunocytochemistry using anti-α-tubulin antibody and secondary Alexa488nm antibody. An etched grid coverslip containing 200 numbered boxes was used to select neurons objectively for image acquisition and analysis. A total of 24 boxes were randomly selected per treatment group. All the neurons having total neurite length longer than 4 times of the diameter of neuron cell body were chosen for image analysis. The total length of the neurites of each neuron was measured using Metamorph and used to calculate average total neurite length. […] The intensity of the staining of nuclear pCREB was measured using Metamorph and used to calculate average intensity. In addition, the phosphorylation of CREB in the cytosols of mouse cortical neurons treated with polysaccharides were detected by immunoblotting. […] The protein bands on blots recognized by anti-pCREB (Santa Cruz Biotechnologies) and anti-CREB antibodies were detected on Amersham Hyperfilm™ ECL films (GE Healthcare Life Science) using SuperSignal® West Pico Chemiluminescent Substrate (Thermo Scientific). […]
# [7] = system: pCREB in mouse cortical neurons; assay: pCREB immunoblotting of neuron cytosols; assay type: cell-based; settings: 48 h; 1 μM midi-GAGR, dextran, alginate; 0.1 μM LA-GAGR; 0.01 μM HA-GAGR
# Protocol: as §2
# [8] = system: Differentiated dopaminergic PC12 cells; assay: LIVE/DEAD viability of differentiated PC12 cells exposed to 6-OHDA; assay type: cell-based; settings: 1 μM for 6 h, then 30 μM 6-OHDA for 24 h
# Protocol: Differentiated dopaminergic PC12 cells and primary mouse embryonic cortical neurons (E17, DIV14) were treated with mock (H2O) or 1 μM of dextran, alginate, HA-GAGR or midi-GAGR for 6 h and insulated by oxidative stressors (30 μM 6-OHDA [PC12] and 10 μM amyloid β peptide [cortical neurons]) for 24 h.
# [9] = system: phosphorylated CREB in differentiated PC12 cells; assay: Nuclear p-CREB immunostaining in PC12 cells; assay type: cell-based; settings: 1 μM, 24 h
# Protocol: (§3) Differentiated PC12 cells and mouse embryonic cortical neurons (E17, DIV14) were treated with mock, dextran, alginate, HA-GAGR or midi-GAGR (1 μM) for 24 h and fixed in 3.7% paraformaldehyde. The fixed cells and neurons were immunostained with antibodies against α-tubulin and phosopho-CREB (p-CREB) along with DAPI (nucleus).
# [10] = system: phosphorylated CREB in mouse embryonic cortical neurons; assay: Nuclear p-CREB immunostaining in cortical neurons (Example 2); assay type: cell-based; settings: 1 μM, 24 h
# Protocol: as §3
Compound,average intensity of pCREB in midi-GAGR-treated neurons after inhibitor pre-treatment [1],neuron death after Aβ42 peptide [4],neuron death after 4HNE [4],neuron death after H2O2 [4],fold change in average total neurite length compared to vehicle [5],further results
CN([C@@H](Cc1ccc(OS(=O)(=O)c2cccc3cnccc23)cc1)C(=O)N1CCN(c2ccccc2)CC1)S(=O)(=O)c1cccc2cnccc12 [KN-62],decreased slightly but still statistically significantly,–,–,–,–,–
CS(=O)(=O)c1cccc(CNc2nc(Nc3ccc4c(c3)CCC(=O)N4)ncc2C(F)(F)F)c1 [PF-573228],did not decrease,–,–,–,–,–
Cc1c[nH]c(/C=C2\C(=O)Nc3ccccc32)c1CCC(=O)O [SU5402],significantly decreased,–,–,–,–,"percent of dead cells, pre-treatment then 4HNE ([2]; SU5402 4 μM 6 h, then 10 μM 4HNE 24 h): ~80%; percent of dead cells without 4HNE ([2]; SU5402 4 μM, midi-GAGR 1 μM): did not increase"
N#CC(=C(/N)Sc1ccccc1N)/C(C#N)=C(\N)Sc1ccccc1N [U0126],significantly decreased,–,–,–,–,–
[D-Glc(β1→4)D-GlcA(β1→4)D-Glc(β1→4)L-Rha(α1→3]n [LA-GAGR],–,~10%,10%,~13%,~1.6 fold,"Antioxidant capacity, ABTS assay [3]: 15.4 μM Trolox; average intensity of nuclear pCREB compared to vehicle [6]: ~2 fold; levels of pCREB by immunoblotting compared to control [7]: significantly increased"
alginate,–,did not decrease,reduced,did not reduce,did not enhance neuritogenesis,6-OHDA-induced cell death [8]: did not; increase of the levels of nuclear p-CREB [9]: not significantly increased; increase of the levels of nuclear p-CREB [10]: not significantly increased
